Measured values published in ChEMBL document CHEMBL1201861, “Genomics of Drug Sensitity in Cancer screening data, Wellcome Trust Sanger Institute”.

Tests used:
Format in all cases: functional, cell-based
KU-19-19 = test: cells; details: Homo sapiens
Description: SANGER: Inhibition of human KU-19-19 cell growth in a cell viability assay.

SCC-4 = test: cells; details: Homo sapiens;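 also: growth inhibition of human SCC-4 cells, read out as cell viability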
Description: SANGER: Inhibition of human SCC-4 cell growth in a cell viability assay.

YKG-1 = test: cells; details: Homo sapiens;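 also: cell growth inhibition, read out with a viability assay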
Description: SANGER: Inhibition of human YKG-1 cell growth in a cell viability assay.

A-375 = test: cells; details: Homo sapiens;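 also: growth inhibition of A375 cells, read out with a cell viability assay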
Description: SANGER: Inhibition of human A375 cell growth in a cell viability assay.

Panc1005 = test: cells; details: Homo sapiens;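 also: growth inhibition of human PANC-10-05 cells, measured by a cell viability assay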
Description: SANGER: Inhibition of human PANC-10-05 cell growth in a cell viability assay.

HCC1954 = test: cells; details: Homo sapiens;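 also: growth inhibition of human HCC1954 cells, read out with a cell viability assay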
Description: SANGER: Inhibition of human HCC1954 cell growth in a cell viability assay.

G-361 = test: cells; details: Homo sapiens
SW48 = test: cells; details: Homo sapiens;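 also: growth inhibition of SW48 cells, read out with a cell viability assay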
Description: SANGER: Inhibition of human SW48 cell growth in a cell viability assay.

HCC2157 = test: cells; details: Homo sapiens;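 also: growth inhibition of the cancer cell line, read out as cell viability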
Description: SANGER: Inhibition of human HCC2157 cell growth in a cell viability assay.

NCI-H441 = test: cells; details: Homo sapiens;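 also: growth inhibition of NCI-H441 cells, read out with a cell viability assay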
Description: SANGER: Inhibition of human NCI-H441 cell growth in a cell viability assay.

ME-180 = test: cells; details: Homo sapiens;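 also: cell viability assay measuring growth inhibition of ME-180 cells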
Description: SANGER: Inhibition of human ME-180 cell growth in a cell viability assay.

NB7 = test: cells; details: Homo sapiens;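 also: growth inhibition of NB7 cells, read out with a cell viability assay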
Description: SANGER: Inhibition of human NB7 cell growth in a cell viability assay.

DK-MG = test: cells; details: Homo sapiens;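 also: growth inhibition of DK-MG cells, read out with a cell viability assay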
Description: SANGER: Inhibition of human DK-MG cell growth in a cell viability assay.

OVCAR-5 = test: cells; details: Homo sapiens;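 also: growth inhibition of human OVCAR-5 cells, read out with a cell viability assay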
Description: SANGER: Inhibition of human OVCAR-5 cell growth in a cell viability assay.

PANC-08-13 = test: cells; details: Homo sapiens
Description: SANGER: Inhibition of human PANC-08-13 cell growth in a cell viability assay.

AU565 = test: cells; details: Homo sapiens;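 also: cell viability assay measuring growth inhibition of human AU565 cells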
Description: SANGER: Inhibition of human AU565 cell growth in a cell viability assay.

MIA PaCa-2 = test: cells; details: Homo sapiens;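 also: growth inhibition of MIA PaCa-2 cells, read out with a cell viability assay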
Description: SANGER: Inhibition of human MIA-PaCa-2 cell growth in a cell viability assay.

NCI-H2347 = test: cells; details: Homo sapiens;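 also: growth inhibition of the cell line, read out with a cell viability assay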
Description: SANGER: Inhibition of human NCI-H2347 cell growth in a cell viability assay.

HSC-2 = test: cells; details: Homo sapiens;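 also: growth inhibition of human HSC-2 cells, read out by a cell viability assay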
Description: SANGER: Inhibition of human HSC-2 cell growth in a cell viability assay.

A 172 = test: cells; details: Homo sapiens;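 also: growth inhibition of A172 cells, measured with a cell viability readout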
Description: SANGER: Inhibition of human A172 cell growth in a cell viability assay.

HCC70 = test: cells; details: Homo sapiens;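 also: cell viability assay measuring how strongly the compound suppresses proliferation of HCC70 cells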
Description: SANGER: Inhibition of human HCC70 cell growth in a cell viability assay.

S-117 = test: cells; details: Homo sapiens
Description: SANGER: Inhibition of human S-117 cell growth in a cell viability assay.

EFM-19 = test: cells; details: Homo sapiens;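 also: growth inhibition of human EFM-19 cells, measured in a cell viability assay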
Description: SANGER: Inhibition of human EFM-19 cell growth in a cell viability assay.

SKG-IIIa = test: cells; details: Homo sapiens;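 also: cell growth inhibition, read out with a cell viability assay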
Description: SANGER: Inhibition of human SKG-IIIa cell growth in a cell viability assay.

PA-1 = test: cells; details: Homo sapiens;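 also: IC50 for suppression of PA-1 cell proliferation, determined with a cell viability read-out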
Description: SANGER: Inhibition of human PA-1 cell growth in a cell viability assay.

BHT-101 = test: cells; details: Homo sapiens
Description: SANGER: Inhibition of human BHT-101 cell growth in a cell viability assay.

KP-4 = test: cells; details: Homo sapiens;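 also: human KP-4 cells, with growth inhibition read out through a cell viability assay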
Description: SANGER: Inhibition of human KP-4 cell growth in a cell viability assay.

CHP-212 = test: cells; details: Homo sapiens
Description: SANGER: Inhibition of human CHP-212 cell growth in a cell viability assay.

NCI-H1703 = test: cells; details: Homo sapiens;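 also: growth inhibition of NCI-H1703 cells, read out via a cell viability assay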
Description: SANGER: Inhibition of human NCI-H1703 cell growth in a cell viability assay.

NCI-H630 = test: cells; details: Homo sapiens;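 also: growth inhibition of NCI-H630 cells, read out with a cell viability assay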
Description: SANGER: Inhibition of human NCI-H630 cell growth in a cell viability assay.

T47D = test: cells; details: Homo sapiens;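 also: growth inhibition of human T47D cells, measured with a cell viability assay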
Description: SANGER: Inhibition of human T47D cell growth in a cell viability assay.

MEL-HO = test: cells; details: Homo sapiens
Description: SANGER: Inhibition of human MEL-HO cell growth in a cell viability assay.

Ca-Ski = test: cells; details: Homo sapiens;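 also: cell viability assay measuring inhibition of Ca-Ski cell growth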
Description: SANGER: Inhibition of human Ca-Ski cell growth in a cell viability assay.

PC-14 = test: cells; details: Homo sapiens;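 also: cell viability assay measuring inhibition of PC-14 cell growth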
Description: SANGER: Inhibition of human PC-14 cell growth in a cell viability assay.

COLO-679 = test: cells; details: Homo sapiens
Description: SANGER: Inhibition of human COLO-679 cell growth in a cell viability assay.

A253 cell line = test: cells; details: Homo sapiens;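 also: growth inhibition of A253 cells, read out with a cell viability assay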
Description: SANGER: Inhibition of human A253 cell growth in a cell viability assay.

Detroit 562 = test: cells; details: Homo sapiens;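 also: growth inhibition of human Detroit 562 cells, read out by a cell viability assay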
Description: SANGER: Inhibition of human Detroit562 cell growth in a cell viability assay.

KYSE-180 = test: cells; details: Homo sapiens;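 also: growth inhibition of KYSE-180 cells, read out with a cell viability assay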
Description: SANGER: Inhibition of human KYSE-180 cell growth in a cell viability assay.

AN3-CA = test: cells; details: Homo sapiens;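 also: growth inhibition of human AN3-CA cells measured by a cell viability assay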
Description: SANGER: Inhibition of human AN3-CA cell growth in a cell viability assay.

SNU-423 = test: cells; details: Homo sapiens
Description: SANGER: Inhibition of human SNU-423 cell growth in a cell viability assay.

A673 = test: cells; details: Homo sapiens;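 also: growth inhibition of human A673 cells, read out through a cell viability assay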
Description: SANGER: Inhibition of human A673 cell growth in a cell viability assay.

C3A = test: cells; details: Homo sapiens;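 also: growth inhibition of C3A human cells, quantified with a cell viability readout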
Description: SANGER: Inhibition of human C3A cell growth in a cell viability assay.

A2780 = test: cells; details: Homo sapiens;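 also: growth inhibition of A2780 cells, read out with a cell viability assay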
Description: SANGER: Inhibition of human A2780 cell growth in a cell viability assay.

KYSE-70 cell line = test: cells; details: Homo sapiens;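 also: cell viability assay read-out, with IC50 expressing suppression of KYSE-70 cell growth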
Description: SANGER: Inhibition of human KYSE-70 cell growth in a cell viability assay.

NB17 = test: cells; details: Homo sapiens;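 also: growth inhibition of NB17 cells, read out with a cell viability assay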
Description: SANGER: Inhibition of human NB17 cell growth in a cell viability assay.

COLO-792 = test: cells; details: Homo sapiens
Description: SANGER: Inhibition of human COLO-792 cell growth in a cell viability assay.

PC-3 = test: cells; details: Homo sapiens;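 also: cell viability assay measuring growth inhibition of PC-3 cells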
Description: SANGER: Inhibition of human PC-3 cell growth in a cell viability assay.

NY = test: cells; details: Homo sapiens
Description: SANGER: Inhibition of human NY cell growth in a cell viability assay.

NCI-H1563 = test: cells; details: Homo sapiens;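 also: growth inhibition of human NCI-H1563 cells, read out with a cell viability assay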
Description: SANGER: Inhibition of human NCI-H1563 cell growth in a cell viability assay.

NCI-H522 = test: cells; details: Homo sapiens;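 also: cell viability assay measuring growth inhibition of human NCI-H522 cells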
Description: SANGER: Inhibition of human NCI-H522 cell growth in a cell viability assay.

EFO-21 = test: cells; details: Homo sapiens;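 also: growth inhibition of EFO-21 cells measured with a viability assay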
Description: SANGER: Inhibition of human EFO-21 cell growth in a cell viability assay.

RL = test: cells; details: Homo sapiens
Description: SANGER: Inhibition of human RL cell growth in a cell viability assay.

REH = test: cells; details: Homo sapiens;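 also: growth inhibition of REH cells determined with a cell viability read-out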
Description: SANGER: Inhibition of human REH cell growth in a cell viability assay.

NCI-H1694 = test: cells; details: Homo sapiens;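 also: cell viability assay measuring inhibition of growth in human NCI-H1694 cells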
Description: SANGER: Inhibition of human NCI-H1694 cell growth in a cell viability assay.

CA46 = test: cells; details: Homo sapiens;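 also: growth inhibition of human CA46 cells, read out by a cell viability assay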
Description: SANGER: Inhibition of human CA46 cell growth in a cell viability assay.

NCI-H1963 = test: cells; details: Homo sapiens;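 also: cell growth inhibition of the human line, determined with a cell viability assay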
Description: SANGER: Inhibition of human NCI-H1963 cell growth in a cell viability assay.

COR-L279 = test: SANGER: Inhibition of human COR-L279 cell growth in a cell viability assay.
ST486 = test: SANGER: Inhibition of human ST486 cell growth in a cell viability assay.
NCI-H1436 = test: cells; details: Homo sapiens;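 also: growth suppression of human NCI-H1436 cells, determined with a cell viability readout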
Description: SANGER: Inhibition of human NCI-H1436 cell growth in a cell viability assay.

Raji = test: cells; details: Homo sapiens;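 also: cell viability assay measuring inhibition of Raji cell growth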
Description: SANGER: Inhibition of human Raji cell growth in a cell viability assay.

SCC-3 = test: cells; details: Homo sapiens;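 also: cell viability assay measuring inhibition of SCC-3 cell growth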
Description: SANGER: Inhibition of human SCC-3 cell growth in a cell viability assay.

DG-75 = test: cells; details: Homo sapiens;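 also: growth inhibition of DG-75 cells, read out with a cell viability assay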
Description: SANGER: Inhibition of human DG-75 cell growth in a cell viability assay.

U-698-M = test: cells; details: Homo sapiens
Description: SANGER: Inhibition of human U-698-M cell growth in a cell viability assay.

GDM-1 = test: cells; details: Homo sapiens;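 also: cell viability readout used to measure growth inhibition of human GDM-1 cells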
Description: SANGER: Inhibition of human GDM-1 cell growth in a cell viability assay.

NCI-H524 = test: cells; details: Homo sapiens;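 also: growth inhibition of human NCI-H524 cells, read out through a cell viability assay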
Description: SANGER: Inhibition of human NCI-H524 cell growth in a cell viability assay.

`O=c1cc(N2CCOCC2)oc2c(-c3cccc4c3sc3ccccc34)cccc12` was tested, and the IC50 (KU-19-19) was greater than 2 µM, the IC50 (SCC-4) was greater than 2 µM and the IC50 (YKG-1) was greater than 2 µM. It also gave an IC50 (A-375) greater than 2 µM, an IC50 (Panc1005) greater than 2 µM and an IC50 (HCC1954) greater than 2 µM. For the same molecule, the IC50 (G-361) was greater than 2 µM, the IC50 (SW48) was greater than 2 µM and the IC50 (HCC2157) was greater than 2 µM. It also gave an IC50 (NCI-H441) greater than 2 µM, an IC50 (ME-180) greater than 2 µM and an IC50 (NB7) of 1.25 µM. The IC50 (DK-MG) was greater than 2 µM, the IC50 (OVCAR-5) was greater than 2 µM and the IC50 (PANC-08-13) was greater than 2 µM. It also gave an IC50 (AU565) greater than 2 µM, an IC50 (MIA PaCa-2) greater than 2 µM and an IC50 (NCI-H2347) greater than 2 µM. It also gave an IC50 (HSC-2) greater than 2 µM, an IC50 (A 172) of 0.153 µM and an IC50 (HCC70) greater than 2 µM. The IC50 (S-117) was greater than 2 µM, the IC50 (EFM-19) was greater than 2 µM and the IC50 (SKG-IIIa) was greater than 2 µM. It also gave an IC50 (PA-1) of 1.58 µM, an IC50 (BHT-101) greater than 2 µM and an IC50 (KP-4) greater than 2 µM. The IC50 (CHP-212) was greater than 2 µM, the IC50 (NCI-H1703) was greater than 2 µM and the IC50 (NCI-H630) was greater than 2 µM. The IC50 (T47D) was greater than 2 µM, the IC50 (MEL-HO) was greater than 2 µM and the IC50 (Ca-Ski) was greater than 2 µM. It also gave an IC50 (PC-14) greater than 2 µM, an IC50 (COLO-679) greater than 2 µM and an IC50 (A253 cell line) greater than 2 µM. It also gave an IC50 (Detroit 562) greater than 2 µM, an IC50 (KYSE-180) greater than 2 µM and an IC50 (AN3-CA) greater than 2 µM. For the same molecule, the IC50 (SNU-423) was greater than 2 µM, the IC50 (A673) was greater than 2 µM and the IC50 (C3A) was greater than 2 µM. The IC50 (A2780) was greater than 2 µM, the IC50 (KYSE-70 cell line) was greater than 2 µM and the IC50 (NB17) was greater than 2 µM. The IC50 (COLO-792) was greater than 2 µM, the IC50 (PC-3) was greater than 2 µM and the IC50 (NY) was greater than 2 µM. For the same molecule, the IC50 (NCI-H1563) was greater than 2 µM, the IC50 (NCI-H522) was greater than 2 µM and the IC50 (EFO-21) was greater than 2 µM.
`O=c1[nH]c2ccccc2n1C1CCN(Cc2ccc(-c3nc4cc5[nH]cnc5cc4nc3-c3ccccc3)cc2)CC1` gave an IC50 (RL) greater than 2.56 µM, an IC50 (KU-19-19) greater than 2.56 µM and an IC50 (SCC-4) greater than 2.56 µM. It also gave an IC50 (YKG-1) of 1.02 µM, an IC50 (A-375) greater than 2.56 µM and an IC50 (Panc1005) greater than 2.56 µM. The IC50 (HCC1954) was greater than 2.56 µM, the IC50 (G-361) was greater than 2.56 µM and the IC50 (REH) was greater than 2.56 µM. For the same molecule, the IC50 (SW48) was greater than 2.56 µM, the IC50 (NCI-H1694) was greater than 2.56 µM and the IC50 (HCC2157) was greater than 2.56 µM. For the same molecule, the IC50 (NCI-H441) was greater than 2.56 µM, the IC50 (CA46) was greater than 2.56 µM and the IC50 (ME-180) was greater than 2.56 µM. For the same molecule, the IC50 (DK-MG) was greater than 2.56 µM, the IC50 (OVCAR-5) was greater than 2.56 µM and the IC50 (NCI-H1963) was greater than 2.56 µM. It also gave an IC50 (PANC-08-13) greater than 2.56 µM, an IC50 (AU565) of 1.24 µM and an IC50 (MIA PaCa-2) greater than 2.56 µM. It also gave an IC50 (NCI-H2347) greater than 2.56 µM, an IC50 (COR-L279) of 1.68 µM and an IC50 (HSC-2) greater than 2.56 µM. It also gave an IC50 (A 172) greater than 2.56 µM, an IC50 (HCC70) of 0.751 µM and an IC50 (S-117) greater than 2.56 µM. For the same molecule, the IC50 (ST486) was greater than 2.56 µM, the IC50 (NCI-H1436) was greater than 2.56 µM and the IC50 (EFM-19) was 0.564 µM. The IC50 (SKG-IIIa) was greater than 2.56 µM, the IC50 (Raji) was greater than 2.56 µM and the IC50 (PA-1) was greater than 2.56 µM. It also gave an IC50 (SCC-3) greater than 2.56 µM, an IC50 (BHT-101) greater than 2.56 µM and an IC50 (KP-4) greater than 2.56 µM. It also gave an IC50 (CHP-212) greater than 2.56 µM, an IC50 (NCI-H1703) greater than 2.56 µM and an IC50 (NCI-H630) greater than 2.56 µM. It also gave an IC50 (T47D) of 0.516 µM, an IC50 (MEL-HO) greater than 2.56 µM and an IC50 (Ca-Ski) greater than 2.56 µM. The IC50 (PC-14) was greater than 2.56 µM, the IC50 (COLO-679) was greater than 2.56 µM and the IC50 (DG-75) was greater than 2.56 µM. The IC50 (A253 cell line) was greater than 2.56 µM, the IC50 (Detroit 562) was greater than 2.56 µM and the IC50 (KYSE-180) was greater than 2.56 µM. For the same molecule, the IC50 (U-698-M) was greater than 2.56 µM, the IC50 (AN3-CA) was 1.66 µM and the IC50 (SNU-423) was greater than 2.56 µM. The IC50 (A673) was greater than 2.56 µM, the IC50 (C3A) was greater than 2.56 µM and the IC50 (A2780) was greater than 2.56 µM. For the same molecule, the IC50 (KYSE-70 cell line) was greater than 2.56 µM, the IC50 (COLO-792) was greater than 2.56 µM and the IC50 (GDM-1) was greater than 2.56 µM. For the same molecule, the IC50 (PC-3) was greater than 2.56 µM, the IC50 (NY) was greater than 2.56 µM and the IC50 (NCI-H1563) was 0.542 µM. It also gave an IC50 (NCI-H524) greater than 2.56 µM, an IC50 (NCI-H522) greater than 2.56 µM and an IC50 (EFO-21) greater than 2.56 µM.
